Data from ChEMBL document CHEMBL1147911, “Synthesis and evaluation of novel benzimidazole derivative [Bz-Im] and its radio/biological studies” (Bioorg Med Chem Lett, 2007).

How the values were obtained:
[1] = molecular target: T1, Cholecystokinin receptor type A (Rattus norvegicus, UniProt P30551); assay: Displacement of [125I](BH)CCK8 from rat CCK1 after 30 mins by receptor binding assay
T1 sequence (P30551 whole entry): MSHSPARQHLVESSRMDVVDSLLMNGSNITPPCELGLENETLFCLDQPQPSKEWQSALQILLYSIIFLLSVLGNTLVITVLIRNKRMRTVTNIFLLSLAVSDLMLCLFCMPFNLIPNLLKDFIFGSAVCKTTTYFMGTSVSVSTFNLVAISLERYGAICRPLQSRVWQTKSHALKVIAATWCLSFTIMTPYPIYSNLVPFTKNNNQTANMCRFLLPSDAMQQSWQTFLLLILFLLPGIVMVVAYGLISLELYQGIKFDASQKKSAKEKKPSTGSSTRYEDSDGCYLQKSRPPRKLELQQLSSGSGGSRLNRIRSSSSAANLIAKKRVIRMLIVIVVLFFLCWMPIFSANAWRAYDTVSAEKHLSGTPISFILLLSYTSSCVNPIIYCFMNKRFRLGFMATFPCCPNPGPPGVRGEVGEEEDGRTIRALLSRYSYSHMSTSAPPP

[2] = molecular target: T2, Cholecystokinin receptor type A (Cavia porcellus, UniProt Q63931); assay: Displacement of [125I](BH)CCK8 from Guinea pig CCK1 after 30 mins by receptor binding assay
T2 sequence (Q63931 whole entry): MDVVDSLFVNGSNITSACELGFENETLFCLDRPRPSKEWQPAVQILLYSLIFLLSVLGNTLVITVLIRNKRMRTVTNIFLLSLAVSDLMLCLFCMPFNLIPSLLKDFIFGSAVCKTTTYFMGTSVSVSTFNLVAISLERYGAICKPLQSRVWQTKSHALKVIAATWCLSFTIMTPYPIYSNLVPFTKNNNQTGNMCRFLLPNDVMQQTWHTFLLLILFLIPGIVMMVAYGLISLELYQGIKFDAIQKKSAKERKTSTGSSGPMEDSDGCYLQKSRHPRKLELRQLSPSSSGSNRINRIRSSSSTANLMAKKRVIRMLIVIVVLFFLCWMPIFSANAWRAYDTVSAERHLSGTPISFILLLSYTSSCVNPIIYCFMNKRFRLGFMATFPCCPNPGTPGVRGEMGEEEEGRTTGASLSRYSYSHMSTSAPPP

Aspergillus flavus [3] = assay: Antifungal activity against Aspergillus flavus at 10 ug/ml after seven days by agar plate method; type: functional; conditions: 168 h
Aspergillus flavus [4] = assay: Antifungal activity against Aspergillus flavus at 20 ug/ml after seven days by agar plate method; type: functional; conditions: 168 h
Aspergillus flavus [5] = assay: Antifungal activity against Aspergillus flavus at 50 ug/ml after seven days by agar plate method; type: functional; conditions: 168 h
Aspergillus niger [6] = assay: Antifungal activity against Aspergillus niger at 20 ug/ml after seven days by agar plate method; type: functional; conditions: 168 h
Aspergillus niger [7] = assay: Antifungal activity against Aspergillus niger at 50 ug/ml after seven days by agar plate method; type: functional; conditions: 168 h
Aspergillus niger [8] = assay: Antifungal activity against Aspergillus niger at 10 ug/ml after seven days by agar plate method; type: functional; conditions: 168 h
Stomach [9] = assay: Biodistribution in Albino mouse stomach at 10 uCi after 1 hr; type: ADME, organism-based; conditions: in vivo
Stomach [10] = assay: Biodistribution in Albino mouse stomach at 10 uCi after 2 hr; type: ADME, organism-based; conditions: in vivo
Stomach [11] = assay: Biodistribution in Albino mouse stomach at 10 uCi after 4 hr; type: ADME, organism-based; conditions: in vivo
Stomach [12] = assay: Biodistribution in Albino mouse stomach at 10 uCi after 6 hr; type: ADME, organism-based; conditions: in vivo
Stomach [13] = assay: Biodistribution in Albino mouse stomach at 10 uCi after 8 hr; type: ADME, organism-based; conditions: in vivo
Intestine [14] = assay: Biodistribution in Albino mouse intestine at 10 uCi after 1 hr; type: ADME, organism-based; conditions: in vivo
Intestine [15] = assay: Biodistribution in Albino mouse intestine at 10 uCi after 2 hr; type: ADME, organism-based; conditions: in vivo
Intestine [16] = assay: Biodistribution in Albino mouse intestine at 10 uCi after 4 hr; type: ADME, organism-based; conditions: in vivo
Intestine [17] = assay: Biodistribution in Albino mouse intestine at 10 uCi after 6 hr; type: ADME, organism-based; conditions: in vivo
Intestine [18] = assay: Biodistribution in Albino mouse intestine at 10 uCi after 8 hr; type: ADME, organism-based; conditions: in vivo
Brain [19] = assay: Biodistribution in Albino mouse brain at 10 uCi after 2 hr; type: ADME, organism-based; conditions: in vivo
Brain [20] = assay: Biodistribution in Albino mouse brain at 10 uCi after 4 hr; type: ADME, organism-based; conditions: in vivo
Brain [21] = assay: Biodistribution in Albino mouse brain at 10 uCi after 6 hr; type: ADME, organism-based; conditions: in vivo
Brain [22] = assay: Biodistribution in Albino mouse brain at 10 uCi after 8 hr; type: ADME, organism-based; conditions: in vivo
Liver [23] = assay: Biodistribution in Albino mouse liver at 10 uCi after 1 hr; type: ADME, organism-based; conditions: in vivo
Liver [24] = assay: Biodistribution in Albino mouse liver at 10 uCi after 2 hr; type: ADME, organism-based; conditions: in vivo
Liver [25] = assay: Biodistribution in Albino mouse liver at 10 uCi after 4 hr; type: ADME, organism-based; conditions: in vivo
Liver [26] = assay: Biodistribution in Albino mouse liver at 10 uCi after 6 hr; type: ADME, organism-based; conditions: in vivo
Liver [27] = assay: Biodistribution in Albino mouse liver at 10 uCi after 8 hr; type: ADME, organism-based; conditions: in vivo
Spleen [28] = assay: Biodistribution in Albino mouse spleen at 10 uCi after 1 hr; type: ADME, organism-based; conditions: in vivo
Spleen [29] = assay: Biodistribution in Albino mouse spleen at 10 uCi after 2 hr; type: ADME, organism-based; conditions: in vivo
Spleen [30] = assay: Biodistribution in Albino mouse spleen at 10 uCi after 4 hr; type: ADME, organism-based; conditions: in vivo
Spleen [31] = assay: Biodistribution in Albino mouse spleen at 10 uCi after 6 hr; type: ADME, organism-based; conditions: in vivo
Spleen [32] = assay: Biodistribution in Albino mouse spleen at 10 uCi after 8 hr; type: ADME, organism-based; conditions: in vivo
Kidney [33] = assay: Biodistribution in Albino mouse kidney at 10 uCi after 1 hr; type: ADME, organism-based; conditions: in vivo
Kidney [34] = assay: Biodistribution in Albino mouse kidney at 10 uCi after 2 hr; type: ADME, organism-based; conditions: in vivo
Kidney [35] = assay: Biodistribution in Albino mouse kidney at 10 uCi after 4 hr; type: ADME, organism-based; conditions: in vivo
Kidney [36] = assay: Biodistribution in Albino mouse kidney at 10 uCi after 6 hr; type: ADME, organism-based; conditions: in vivo
Kidney [37] = assay: Biodistribution in Albino mouse kidney at 10 uCi after 8 hr; type: ADME, organism-based; conditions: in vivo
Blood [38] = assay: Biodistribution in Albino mouse blood at 10 uCi after 1 hr; type: ADME, organism-based; conditions: in vivo
Blood [39] = assay: Biodistribution in Albino mouse blood at 10 uCi after 2 hr; type: ADME, organism-based; conditions: in vivo
Blood [40] = assay: Biodistribution in Albino mouse blood at 10 uCi after 4 hr; type: ADME, organism-based; conditions: in vivo
Blood [41] = assay: Biodistribution in Albino mouse blood at 10 uCi after 6 hr; type: ADME, organism-based; conditions: in vivo
Blood [42] = assay: Biodistribution in Albino mouse blood at 10 uCi after 8 hr; type: ADME, organism-based; conditions: in vivo
Heart [43] = assay: Biodistribution in Albino mouse heart at 10 uCi after 1 hr; type: ADME, organism-based; conditions: in vivo
Heart [44] = assay: Biodistribution in Albino mouse heart at 10 uCi after 2 hr; type: ADME, organism-based; conditions: in vivo
Heart [45] = assay: Biodistribution in Albino mouse heart at 10 uCi after 4 hr; type: ADME, organism-based; conditions: in vivo
Heart [46] = assay: Biodistribution in Albino mouse heart at 10 uCi after 6 hr; type: ADME, organism-based; conditions: in vivo
Heart [47] = assay: Biodistribution in Albino mouse heart at 10 uCi after 8 hr; type: ADME, organism-based; conditions: in vivo

O=C1c2ccccc2C(=O)N1Cc1c(O)ccc2c(/C=C/c3ccc(-c4ccccc4)cc3)cc3nc4ccccc4n3c12
IC50 [1]: 0.197 µM
IC50 [2]: 16.4 µM

O=C1c2ccccc2C(=O)N1Cc1c(O)ccc2c(/C=C/c3ccccc3)cc3nc4ccccc4n3c12
IC50 [1]: 0.942 µM
IC50 [2]: 4.32 µM
inhibition at 10 µg/mL (Aspergillus flavus [3]): 73.3%
inhibition at 20 µg/mL (Aspergillus flavus [4]): 76.7%
inhibition at 50 µg/mL (Aspergillus flavus [5]): 88.3%
inhibition at 20 µg/mL (Aspergillus niger [6]): 76.8%
inhibition at 50 µg/mL (Aspergillus niger [7]): 84.6%
inhibition at 10 µg/mL (Aspergillus niger [8]): 60.3%
Drug uptake (Stomach [9]): 1 % ID/g
Drug uptake (Stomach [10]): 2.5 % ID/g
Drug uptake (Stomach [11]): 3 % ID/g
Drug uptake (Stomach [12]): 7 % ID/g
Drug uptake (Stomach [13]): 9.5 % ID/g
Drug uptake (Intestine [14]): 0.5 % ID/g
Drug uptake (Intestine [15]): 0.5 % ID/g
Drug uptake (Intestine [16]): 0.2 % ID/g
Drug uptake (Intestine [17]): 3 % ID/g
Drug uptake (Intestine [18]): 3 % ID/g
Drug uptake (Brain [19]): 0.2 % ID/g
Drug uptake (Brain [20]): 0.45 % ID/g
Drug uptake (Brain [21]): 1 % ID/g
Drug uptake (Brain [22]): 1 % ID/g
Drug uptake (Liver [23]): 18 % ID/g
Drug uptake (Liver [24]): 25 % ID/g
Drug uptake (Liver [25]): 18 % ID/g
Drug uptake (Liver [26]): 15 % ID/g
Drug uptake (Liver [27]): 15 % ID/g
Drug uptake (Spleen [28]): 10 % ID/g
Drug uptake (Spleen [29]): 15 % ID/g
Drug uptake (Spleen [30]): 14 % ID/g
Drug uptake (Spleen [31]): 12 % ID/g
Drug uptake (Spleen [32]): 11 % ID/g
Drug uptake (Kidney [33]): 5 % ID/g
Drug uptake (Kidney [34]): 7 % ID/g
Drug uptake (Kidney [35]): 2 % ID/g
Drug uptake (Kidney [36]): 5 % ID/g
Drug uptake (Kidney [37]): 5 % ID/g
Drug uptake (Blood [38]): 3 % ID/g
Drug uptake (Blood [39]): 2 % ID/g
Drug uptake (Blood [40]): 2 % ID/g
Drug uptake (Blood [41]): 0.5 % ID/g
Drug uptake (Blood [42]): 0.5 % ID/g
Drug uptake (Heart [43]): 1 % ID/g
Drug uptake (Heart [44]): 0.4 % ID/g
Drug uptake (Heart [45]): 0.3 % ID/g
Drug uptake (Heart [46]): 0.3 % ID/g
Drug uptake (Heart [47]): 0.2 % ID/g

O=C1c2ccccc2C(=O)N1Cc1c(O)ccc2c(/C=C/c3ccc(O)cc3)cc3nc4ccccc4n3c12
IC50 [1]: 0.665 µM
IC50 [2]: 2.94 µM
inhibition at 10 µg/mL (Aspergillus flavus [3]): 60.8%
inhibition at 20 µg/mL (Aspergillus flavus [4]): 73.4%
inhibition at 50 µg/mL (Aspergillus flavus [5]): 92.1%
inhibition at 20 µg/mL (Aspergillus niger [6]): 83.2%
inhibition at 50 µg/mL (Aspergillus niger [7]): 83.6%
inhibition at 10 µg/mL (Aspergillus niger [8]): 60.7%
Drug uptake (Stomach [9]): 1 % ID/g
Drug uptake (Stomach [10]): 2 % ID/g
Drug uptake (Stomach [11]): 3 % ID/g
Drug uptake (Stomach [12]): 7 % ID/g
Drug uptake (Stomach [13]): 7.5 % ID/g
Drug uptake (Intestine [14]): 0.5 % ID/g
Drug uptake (Intestine [15]): 0.5 % ID/g
Drug uptake (Intestine [16]): 0.2 % ID/g
Drug uptake (Intestine [17]): 1 % ID/g
Drug uptake (Intestine [18]): 1 % ID/g
Drug uptake (Brain [19]): 0.2 % ID/g
Drug uptake (Brain [20]): 0.45 % ID/g
Drug uptake (Brain [21]): 1 % ID/g
Drug uptake (Brain [22]): 1 % ID/g
Drug uptake (Liver [23]): 16 % ID/g
Drug uptake (Liver [24]): 23 % ID/g
Drug uptake (Liver [25]): 14 % ID/g
Drug uptake (Liver [26]): 15 % ID/g
Drug uptake (Liver [27]): 15 % ID/g
Drug uptake (Spleen [28]): 10 % ID/g
Drug uptake (Spleen [29]): 15 % ID/g
Drug uptake (Spleen [30]): 17 % ID/g
Drug uptake (Spleen [31]): 16 % ID/g
Drug uptake (Spleen [32]): 16 % ID/g
Drug uptake (Kidney [33]): 5.5 % ID/g
Drug uptake (Kidney [34]): 6 % ID/g
Drug uptake (Kidney [35]): 3 % ID/g
Drug uptake (Kidney [36]): 4.5 % ID/g
Drug uptake (Kidney [37]): 4.5 % ID/g
Drug uptake (Blood [38]): 2.5 % ID/g
Drug uptake (Blood [39]): 2 % ID/g
Drug uptake (Blood [40]): 2 % ID/g
Drug uptake (Blood [41]): 2.5 % ID/g
Drug uptake (Blood [42]): 2.5 % ID/g
Drug uptake (Heart [43]): 0.8 % ID/g
Drug uptake (Heart [44]): 0.5 % ID/g
Drug uptake (Heart [45]): 0.2 % ID/g
Drug uptake (Heart [46]): 0.1 % ID/g
Drug uptake (Heart [47]): 0.2 % ID/g

C[C@@H]1[C@H](O)[C@@H](C)/C=C/C=C/C=C/C=C/C=C/C=C/C=C/[C@H](O[C@@H]2O[C@H](C)[C@@H](O)[C@H](N)[C@@H]2O)C[C@@H]2O[C@](O)(C[C@@H](O)C[C@@H](O)[C@H](O)CC[C@@H](O)C[C@@H](O)CC(=O)O[C@H]1C)C[C@H](O)[C@H]2C(=O)O [AMPHOTERICIN B]
inhibition at 20 µg/mL (Aspergillus flavus [4]): 86.4%
inhibition at 20 µg/mL (Aspergillus niger [6]): 79.9%
